# Test results published in patent publication US20120172438A1, “GLYCYRRHETINIC ACID ESTER DERIVATIVE SYNTHESIS METHOD AND DEOXOGLYCYRRHETINIC ACID ESTER COMPOUND” (priority 2009, published 2012).
# Marks after values point to notes of the source that are not given here.
# Columns and labels:
# [1] = test system: acetaminophen induced liver injury; test: Acetaminophen induced liver injury in mice; assay type: in vivo; conditions: 5.85 mg/kg gastric infusion, 10 days
# Method: Ethyl 11-deoxy-18α-glycyrrhetinate: provided by traditional Chinese medicine laboratory, R&D center of Jiangsu Chia Tai Tianqing Pharmaceutical Co., Ltd. Bifendate pills: produced by Beijing Union Pharmaceutical factory. Daily dosage of human is 45 mg, used as the positive control medicine. Acetaminophen: produced by Jinzhou biochemical pharmaceutical factory. All medicines were prepared to desired concentrations with physiological saline according to the requirement of experiment. AST, ALT Kit: product of Nanjing Jiancheng bioengineering research institute.
# 60 mice were randomly divided into 6 groups: the normal control group, Bifendate group (positive medicine group), model control group, various doses of ethyl 11-deoxy-18α-glycyrrhetinate groups (240, 120, 60 mg/kg). After the animals were adaptively fed for 3 days, animals in each group were administered the medicines by gastric infusion for 10 days (one time/day). Animals in the normal control group and model group were administered 0.2 ml/mouse of physiological saline. 6 hours after the last administration, animals in each group, except the animals in normal control group, were intraperitoneally injected 400 mg kg-1 acetaminophen. After 12 hours, blood was taken by orbital bleeding. Activities of alanine aminotransferase (ALT), aspartate aminotransferase (AST) were measured. And T test of groups was performed, see table 7;
# [2] = test system: BCG + LPS induced liver injury; test: BCG+LPS induced liver injury in mice; assay type: in vivo, Kunming mice; conditions: 5.85 mg/kg gastric infusion, 7 days
# [3] = test system: D-Galn induced acute liver injury; test: D-Galn induced acute liver injury mouse model; assay type: in vivo, ICR male mice; conditions: Table 2 experiment, 7 days
# Method: 1. Comparison of therapeutic effects of ethyl 11-deoxy-18α-glycyrrhetinate and compound glycyrrhizin injection on ICR male mouse models of the D-Galn induced acute liver injury
# Methods: 60 ICR male mice were randomly divided into 6 groups of 10 mice in each group: the model group, compound glycyrrhizin injection group (60 mg/kg), compound glycyrrhizin gastric infusion group (240 mg /kg), high dose of ethyl 11-deoxy-18α-glycyrrhetinate group (240 mg/kg), middle dose of ethyl 11-deoxy-18α-glycyrrhetinate group (120 mg/kg), low dose of ethyl 11-deoxy-18α-glycyrrhetinate group (60 mg/kg). […] The mice in model group were administered equal amount of 0.5% CMC-Na by gastric infusion.
# [4] = test system: TAA induced acute liver injury; test: TAA induced acute liver injury mouse model; assay type: in vivo, ICR male mice; design: Average grade of hepatocyte necrosis: scale not given here; conditions: 240 mg/kg IG
# Method: 50 ICR male mice were randomly divided into 5 groups of 10 mice in each group: the model group, diammonium glycyrrhizinate group (240 mg/kg), high dose of ethyl 11-deoxy-18α-glycyrrhetinate group (240 mg/kg), middle dose of ethyl 11-deoxy-18α-glycyrrhetinate group (120 mg/kg), and low dose of ethyl 11-deoxy-18α-glycyrrhetinate group (60 mg/kg). The mice in model group were administered equal amount of 0.5% CMC-Na by IG.
structure (smiles),measurement,setting,value
"COC(=O)c1cc(OC)c2c(c1-c1c(C(=O)OC)cc(OC)c3c1OCO3)OCO2 [Bifendate, reference compound]",ALT,[1],134.6 ± 12.9 U/L
same,AST,[1],162.3 ± 31.7 U/L
same,ALT,[2],110.5 ± 11.9 U/L
same,AST,[2],152.3 ± 41.6 U/L
"CC1(C)[C@@H](O[C@H]2O[C@H](C(=O)O)[C@@H](O)[C@H](O)[C@H]2O[C@@H]2O[C@H](C(=O)O)[C@@H](O)[C@H](O)[C@H]2O)CC[C@]2(C)[C@H]3C(=O)C=C4[C@@H]5C[C@@](C)(C(=O)O)CC[C@]5(C)CC[C@@]4(C)[C@]3(C)CC[C@@H]12.N.N [Diammonium glycyrrhizinate, diammonium glycyrrhizinate, reference compound]",ALT,[3]; 60 mg/kg IP,383 ± 393 U/ml
same,ALT Inhibition %,[3]; 60 mg/kg IP,80%
same,AST,[3]; 60 mg/kg IP,308 ± 389 U/ml
same,AST Inhibition %,[3]; 60 mg/kg IP,73%
same,ALT,[3]; 240 mg/kg IG,993 ± 479 U/ml
same,ALT Inhibition %,[3]; 240 mg/kg IG,49%
same,AST,[3]; 240 mg/kg IG,566 ± 291 U/ml
same,AST Inhibition %,[3]; 240 mg/kg IG,50%
same,ALT,[4],1568 ± 721 U/ml
same,ALT Inhibition %,[4],31%
same,AST,[4],1039 ± 623 U/ml
same,AST Inhibition %,[4],40%
same,Average grade of hepatocyte necrosis,[4],1.3**
same,Grade of hepatocyte necrosis 0 (number of mice),[4]; N=10,0
same,Grade of hepatocyte necrosis 1 (number of mice),[4]; N=10,7
same,Grade of hepatocyte necrosis 2 (number of mice),[4]; N=10,3
same,Grade of hepatocyte necrosis 3 (number of mice),[4]; N=10,0
same,Grade of hepatocyte necrosis 4 (number of mice),[4]; N=10,0
